Molecular target: T1, chicken P2X7 receptor (ckP2X7 WT) (Gallus gallus, UniProt A0A8V1A1T0)
T1 construct: gene P2RX7; ckP2X7 WT (NCBI XP_001235163), expressed in HEK-293 cells
Type: cell-based

T1 sequence (A0A8V1A1T0 entry or part of it): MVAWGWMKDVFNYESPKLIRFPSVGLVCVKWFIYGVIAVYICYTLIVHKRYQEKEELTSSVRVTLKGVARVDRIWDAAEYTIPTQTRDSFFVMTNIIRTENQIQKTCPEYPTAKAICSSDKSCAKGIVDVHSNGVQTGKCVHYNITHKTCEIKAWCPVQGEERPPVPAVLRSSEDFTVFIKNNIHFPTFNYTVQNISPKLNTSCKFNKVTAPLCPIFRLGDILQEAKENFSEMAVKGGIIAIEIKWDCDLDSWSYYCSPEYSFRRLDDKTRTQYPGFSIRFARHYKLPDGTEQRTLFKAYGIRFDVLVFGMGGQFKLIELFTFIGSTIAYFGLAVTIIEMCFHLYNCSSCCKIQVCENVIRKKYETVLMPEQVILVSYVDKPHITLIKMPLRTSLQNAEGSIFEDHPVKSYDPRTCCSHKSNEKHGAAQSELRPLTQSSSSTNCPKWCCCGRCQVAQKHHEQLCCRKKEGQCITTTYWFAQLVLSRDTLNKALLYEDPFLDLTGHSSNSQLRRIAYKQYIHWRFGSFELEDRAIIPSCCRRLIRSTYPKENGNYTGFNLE

Nc1ncnc2c1ncn2[C@@H]1O[C@H](COP(=O)(O)OP(=O)(O)OP(=O)(O)O)[C@@H](O)[C@H]1O [ATP]
whole-cell patch clamp, ATP-evoked currents in transfected HEK-293 cells: ATP activated biphasic currents and TNP-ATP blocked ATP-dependent currents

Reference: paper PMC5638823, “Structural insights into the competitive inhibition of the ATP-gated P2X receptor channel” (Nature Communications, 2017)
